“And” between values parts separate entries of the source, which are not always exact repeats. Equal entries are not always repeated.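 Test compounds were applied to cells in 96-well plates for 48 hours at 5 doses. Abbreviation: GI50, concentration required for 50% inhibition of growth. At the TGI there is no net growth.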 *1 amine or outer side, *2 acyl side, *3 side chain or, on linkers, in order; H or OH if unused. Where a SMILES comes first, the peptide text is derived from it. Bridges are numbered along the chain shown (N, C = ends). [ ]: non-standard residue; d: D form. The star is where a group is joined. Phe(3-Me) = Cc1cccc(C[C@H](N)C(=O)O)c1; NH(4-Cl-2-F-phenyl) = Fc1cc(Cl)ccc1N*; Pro(4R-Me) = C[C@H]1CN[C@H](C(=O)O)C1; Propanoyl(3-NMe2) = CN(C)CCC(=O)*; Hyp = O=C(O)[C@@H]1C[C@@H](O)CN1; aThr = C[C@H](O)[C@H](N)C(=O)O; Pip = O=C(O)[C@@H]1CCCCN1; CO = O=C([*:1])[*:2]
Key:
Assay in all cases: inhibition of tumour cell growth, NCI panel, 48 h
[1] = tested on: TK-10 renal
[2] = tested on: BT-549 breast
[3] = tested on: HS 578T breast
[4] = tested on: RPMI-8226 leukemia
[5] = tested on: MCF7 breast
[6] = tested on: T-47D breast
[7] = tested on: DU-145 prostate
[8] = tested on: SNB-78 CNS
[9] = tested on: LXFL 529 NSCLC
[10] = tested on: XF 498 CNS
[11] = tested on: DMS 273 small cell lung

| Compound | GI50 [1] | TGI [1] | GI50 [2] | TGI [2] | GI50 [3] | TGI [3] | GI50 [4] | TGI [4] | GI50 [5] | TGI [5] | GI50 [6] | TGI [6] | GI50 [7] | TGI [7] | TGI [8] | TGI [9] | TGI [10] | TGI [11] |
| --- | --- | --- | --- | --- | --- | --- | --- | --- | --- | --- | --- | --- | --- | --- | --- | --- | --- | --- |
| CCN1CCN(C(=O)[C@]23CCC(C)(C)C[C@@H]2C2=CC[C@@H]4[C@@]5(C)C/C(=C/c6cccnc6)C(=O)C(C)(C)[C@@H]5CC[C@@]4(C)[C@]2(C)CC3)CC1 | 3.86 µM | 15.4 µM | 1.47 µM | 2.88 µM | 1.83 µM | 5.37 µM | 0.959 µM | 5.13 µM | 1.4 µM | 3.07 µM | 2.61 µM | 13.7 µM | 1.83 µM | 3.88 µM | – | – | – | – |
| Cc1ccccc1/C=C1\CN(C(=O)OC(C)(C)C)C/C(=C\c2ccccc2C)C1=O | 3.65 µM | 15 µM | 2.3 µM | 6.61 µM | 3.99 µM | 83.1 µM | 1.66 µM | 5.37 µM | 2.21 µM | > 100 µM | 3.78 µM | > 100 µM | 2.37 µM | 5.52 µM | – | – | – | – |
| CC(C)[C@@H]1CC[C@@H]2[C@@H]1[C@H](OC(=O)/C=C/c1ccccc1)[C@]1(C(C)C)C[C@@H](OC(=O)CO)[C@@]2(C)O1 | 6.46 µM | 15.4 µM | 0.0375 µM | 4.38 µM | 0.00325 µM | 0.0136 µM | 7.44 µM | 16.5 µM | 4.88 µM | 10.5 µM | 5.27 µM | 12.5 µM | 7.02 µM | 13.4 µM | – | – | – | – |
| CC(C)CC(=O)NS(=O)(=O)c1ccccc1 | – | > 100 µM | – | – | – | – | – | > 100 µM | – | – | – | – | – | – | > 100 µM | > 100 µM | > 100 µM | – |
| CC1=C(c2cc(C(=O)Nc3nccs3)nc(NC#N)n2)Sc2ccccc2N1 | – | > 100 µM | – | – | – | – | – | > 100 µM | – | – | – | – | – | – | – | > 100 µM | > 100 µM | > 100 µM |
| O=C(CCl)Nc1ccc2c(c1)C(=O)c1ccc(NC(=O)CCl)cc1C2=O | 1.81 µM | 7.33 µM | 0.22 µM | 0.857 µM | 1.29 µM | 9.57 µM | 0.434 µM | 2.23 µM | 0.194 µM | 0.79 µM | 1.22 µM | 3.95 µM | 1.41 µM | 3.45 µM | – | – | – | – |
| Nc1c(C(=O)Nc2ccccc2)sc2nc3c(cc12)CCCC3 | 16.8 µM | > 100 µM | 3.89 µM | > 100 µM | 2.73 µM | > 100 µM | 0.681 µM | 11.5 µM | 0.355 µM | > 100 µM | 0.918 µM | > 63.2 µM | 1.67 µM | > 58.9 µM | – | – | – | – |
| COc1ccc(/C(C)=N/NC(N)=S)c(OC)c1 | – | > 100 µM | – | – | – | – | – | > 100 µM | – | – | – | – | – | – | > 100 µM | > 100 µM | > 100 µM | – |
| CC1CCC23COC(=O)C2C(O)CCC3C1(C)CC(O)c1ccoc1 (stereo not given) | – | > 100 µM | – | – | – | – | – | – | – | – | – | – | – | – | > 100 µM | > 100 µM | > 100 µM | – |
| C[n+]1ccc(-c2c3nc(c(-c4ccc5c(ccc[n+]5C)c4)c4ccc([nH]4)c(-c4cc[n+](C)cc4)c4nc(c(-c5ccc6c(ccc[n+]6C)c5)c5ccc2[nH]5)C=C4)C=C3)cc1 | 10.1 µM | > 50 µM | 35.9 µM | > 50 µM | 42.4 µM | > 50 µM | > 50 µM | > 50 µM | 42.5 µM | > 50 µM | 12.4 µM | 48.7 µM | 30.7 µM | > 50 µM | – | – | – | – |
| COc1ccc(CNc2nc(NCc3ccc(OC)cc3)c3n[nH]c(C(C)C)c3n2)cc1 | 8.29 µM | 24.4 µM | 3.47 µM | 12.2 µM | 2.97 µM | 26 µM | 3.27 µM | 12.5 µM | 3.31 µM | 13.9 µM | 3.38 µM | 42.6 µM | 11.4 µM | 36.5 µM | – | – | – | – |
| N#CC1=C(c2ccccc2)C(O)(c2ccccc2)NC1=O (stereo not given) | – | > 100 µM | – | – | – | – | – | > 100 µM | – | – | – | – | – | – | – | > 100 µM | > 100 µM | > 100 µM |
| NC[C@@](O)(c1ccc(Cl)cc1)c1ccc(-c2cn[nH]c2)cc1 | 0.083 µM and 0.268 µM | 0.875 µM and 1.54 µM | 0.892 µM and 1.13 µM | 3.91 µM and 7.63 µM | 0.471 µM and 0.173 µM | – | 2.23 µM | 4.95 µM | 1.1 µM | 2.54 µM | 1.42 µM and 1.23 µM | 2.87 µM and 2.83 µM | 3.27 µM and 2.49 µM | > 100 µM | – | – | – | – |
| CC/C=C\C/C=C\C[C@H]1C/C=C2/C(=O)C=C[C@H]2C/C=C\CCC(=O)O1 | 4.72 µM | 12.9 µM | 3.68 µM | 10.1 µM | 4.85 µM | > 14.3 µM | 1.29 µM | 7.45 µM | 0.824 µM | 11.8 µM | 4.62 µM | > 14.3 µM | 4.33 µM | > 14.3 µM | – | – | – | – |
| Cc1cccc(C[C@H](NC(=O)Nc2ccc(Cl)cc2F)C(=O)N[C@@H]2C(=O)N3C[C@H](OC(=O)CCN(C)C)C[C@H]3C(=O)N3CCCC[C@H]3C(=O)N[C@@H](C)C(=O)N3C[C@H](C)C[C@H]3C(=O)O[C@H]2C)c1 ({NH(4-Cl-2-F-phenyl)-CO}-[Phe(3-Me)][aThr][Hyp](Propanoyl(3-NMe2))[Pip]A[Pro(4R-Me)]; ester 2-C) | 2.16 µM | 10.6 µM | 0.526 µM | 2.48 µM | 0.474 µM | 3.82 µM | 0.181 µM | 1.88 µM | 0.394 µM | 1.83 µM | 0.448 µM | 4.53 µM | 0.514 µM | 5.86 µM | – | – | – | – |
| O=C(Nc1ccc(Br)cc1F)c1cc(Br)ccc1O | 3.12 µM | 12.3 µM | 0.403 µM | 3.25 µM | 0.467 µM | 5.66 µM | 0.322 µM | 2.02 µM | 0.906 µM | 8.96 µM | 0.457 µM | 6.87 µM | 1.47 µM | 23.1 µM | – | – | – | – |
| CN(C)/C=N/c1nc2ncn(CCOC(=O)c3ccccc3)c2c(=O)[nH]1 | – | > 100 µM | – | – | – | – | – | > 100 µM | – | – | – | – | – | – | > 100 µM | > 100 µM | – | > 100 µM |
| CCSc1nc2n(c(=S)n1)CCN2C | – | – | – | – | – | – | – | 61.7 µM | – | – | – | – | – | – | – | 29.5 µM | – | 33.6 µM |
